Assay results from patent US11752193B2, “Administering methylation-controlled J protein (MCJ) SIRNA to a kidney cell” (University of Vermont and State Agricultural College, priority 2012, dated 2023).

System: MCF7/siMCJ cells
Test: Intracellular ATP levels in MCF7/siMCJ cells after incubation with rotenone
Format: cell-based, human
Conditions: rotenone 10 μM, 4 h, versus medium (FIG. 3B)
Protocol: CD8 T cells and CD4 T cells were purified from spleen and lymph nodes by negative selection as previously described (Auphan et al., 1998 J Immunol 160, 4810-4821; Conze et al., 2002 J Exp Med 195, 811-823), and by positive selection using the MACS system as recommended by the manufacturer (Miltenyi Biotec, Cambridge, Mass.). Purified T cells were stimulated with plate-bound anti-CD3 (2C11) (5 μg/ml) and soluble anti-CD28 (1 μg/ml) (BD Biosciences, Sparks, Md.) mAbs. Proliferation assays were performed using purified CD8 T cells (10^5 cells/well) activated with anti-CD3 and anti-CD28 and labeled with [^3H]-thymidine as previously described (Conze et al., 2002 J Exp Med 195, 811-823). MCF7, MCF7/siMCJ, and 293T cell lines were maintained as previously described (Hatle et al., 2007 Mol Cell Biol 27, 2952-2966). Rotenone (used at 10 μM) was purchased from Sigma Aldrich (St. Louis, Mo.). Transfection of 293T cells by calcium phosphate was performed as previously described (Hatle et al., 2007 Mol Cell Biol 27, 2952-2966).
The levels of intracellular ATP were determined using […] cells (CD8 T cells, MCF7 cells, 293T cells) per sample and the ATPlite® Luminescence ATP Detection Assay System (PerkinElmer®, Waltham, Mass.) following the recommendations from the manufacturer and a TD-20/20 luminometer (Turner Biosystems, Promega®, Madison, Wis.). […]

## C=C(C)[C@H]1Cc2c(ccc3c2O[C@@H]2COc4cc(OC)c(OC)cc4[C@@H]2C3=O)O1 [rotenone, Rotenone]
  levels of ATP: abrogated the levels of ATP
